Here are results for twelve compounds from patent publication US11649218B2, “C-Abl tyrosine kinase inhibitory compound embodiments and methods of making and using the same” (The USA, as represented by the Secretary, Dept. of Health …, priority 2018, dated 2023).

Data set [1] in a line: Pharmacokinetic profile in plasma. It is filed as in vivo, mice. The settings on record: 12.5 mg/kg IP.
Data set [2] is described as follows: Pharmacokinetic profile in brain. It is filed as in vivo, mice. The conditions noted are these: 12.5 mg/kg IP.
The next data set has as its system Leukemia K562 cell. Kind of data set: Leukemia K562 cell proliferation/viability assay (CellTiterGlo, 48 hours). It is filed as cell-based. On the set-up: unit not given here. The settings on record: K562 cells. How it is done: C-Abl is encoded by the ABL1 gene (NCBI Gene ID NO. 25). […] Assays for determining if a small molecule inhibits c-Abl activity are known. Non-limiting examples include cell proliferation assays using cancer cells that are BCR-Abl positive and depend on BCR-Abl for growth, such as the leukemia cell line K562. […] In some embodiments described herein, compounds are tested for ability to reduce K562 cell proliferation in an HTS adapted assay which measures cell viability using the reagent CellTiterGlo after 48 hours treatment.

The subject of data set [3] is P. falciparum strain NF54 asexual parasites. Kind of data set: Asexual stage parasite growth inhibition, SYBR Green assay, 72 hours. In kind it is cell-based. The settings on record: NF54, 72 hours; for IC50: Plasmodium falciparum. How it is done:
In this example, several of the c-Abl inhibitors were tested in the asexual […] strain of P. falciparum parasites for activity against malaria. […] The pre-diluted parasites were dispensed into a 1536-well plate (2.5 μL/well). […] The fluorescence of each well was measured at 520 nm following excitation at 490 nm using a ViewLux platereader (PerkinElmer).

Data set [4] deals with ShSy5y neuroblastome cells. Briefly: Cholesterol accumulation induced by U18666, Filipin or PFO-GST staining. It is filed as cell-based. The conditions noted are these: U18 0.5 μg/ml 24 hours; NCGC00373060 0.1 and 0.01 μM, Imatinib 10 uM. The method, then: Cells were fixed and then stained with Filipin Staining. […] Cells were fixed and a PFO-GST immunofluorescence was performed.

The subject of another data set is APP/PSEN1 mice. Briefly: APP/PSEN1 AD mice model, water maze, Barnes maze and brain histology. The settings on record: water maze.
The test system of a further data set is neurons. Kind of data set: Apoptotic nuclei induced by Aβ fibrils, Hoescht staining. It is filed as cell-based. How it is done:
Additional results from another compound embodiment, NCGC00355553, are provided by FIG. 9C. Apoptotic nuclei were evaluated by Hoescht staining.

Data set [5] can be described thus: Blood and serum analysis after one month of supplemented diet. In kind it is in vivo, mice (C57BL/6×C3H). The conditions noted are these: 1 month diet (Nilotinib 200 ppm; NCGC00373060 67 ppm), individual mice. The source says: After this one-month period, blood and serum was obtained from the mice and analyzed.
Data set [6] in a line: Body weight during supplemented diet in TLE mice study. It is filed as in vivo, mice (C57BL/6). The method, then: (§1) In this example, the ability of compound embodiments of the present disclosure to increase survival and diminish seizure symptoms in a TLE mice model was evaluated. […] The animals' weights were determined the week before and during the two weeks of c-Abl inhibitors treatment (results are provided in Table 12 and are illustrated graphically in FIG. 28). After 15 days of feeding, status epilepticus (SE) induction was evaluated. The mice were IP injected with Scopolamine (1.5 mg/Kg) and after 15 minutes, the SE was induced by IP injection of Pilocarpine (420 mg/Kg). The animals' behavior and the seizures induction was evaluated according to Racine's scale and the survival was determined during 60 minutes post-SE induction. […] Results are tabulated in Table 13, below and also are illustrated graphically in FIGS. 29A-29D.

For the next data set, the system named is TLE mice model. Briefly: Pilocarpine-induced status epilepticus (SE) after 15 days of supplemented diet. In kind it is in vivo, mice (C57BL/6). Set-up: Survival % / Survival %, mean: concentration or dose not given beside the values. The method, then: as §1
[7] abbreviates: individual mice, diet 67 ppm NCGC00373060 or 200 ppm Nilotinib.
The mark [8] stands for this setting: mean, diet 67 ppm NCGC00373060 or 200 ppm Nilotinib.

Values joined by “and” are separate entries in the source; they are usually repeats but may differ in a detail not shown here. Equal entries are not always repeated.

Description for APP/PSEN1 mice: The Barnes maze test is a more sensible test that detects the earlier and subtle cognitive alterations.

On to `O=C(Nc1ccc(OC(F)(F)Cl)cc1)c1cnc(N2CC[C@@H](O)C2)c(-c2ccn[nH]2)c1` [ABL001], for which the Plasma concentration came to 5.454 µM in data set [1] (Time 0.167); 9.137 µM in [1] (Time 0.5); 11.174 µM in [1] (Time 1); 10.189 µM in data set [1] (Time 1.5); 5.483 µM in [1] (Time 2); 1.628 µM in data set [1] (Time 4). Besides, the Plasma concentration in [1] (Time 7) is 0.399 µM; in [1] (Time 24) it was 0.007 µM. The Brain concentration in data set [2] (Time 0.167) came out at 0.330 µmol/kg; in data set [2] (Time 0.5), 0.534 µmol/kg; in data set [2] (Time 1) it was 0.597 µmol/kg; in data set [2] (Time 1.5), 0.442 µmol/kg; in data set [2] (Time 2), 0.336 µmol/kg; in [2] (Time 4), 0.119 µmol/kg. The Brain concentration in [2] (Time 7) is 0.056 µmol/kg; in data set [2] (Time 24) it was 0.003 µmol/kg.
The IC50 is the midpoint of a concentration-inhibition curve. In the data set with Leukemia K562 cell, `NC(=O)c1cccc(-c2cc(Nc3ccc(OC(F)(F)F)cc3)ncn2)c1` [GNF-2] yielded an Efficacy of −85.2. In data set [3], the “% Killing” value is on record as 86.0% and the IC50 amounted to 1400 nM.
Take `Cc1ccc(NC(=O)c2ccc(CN3CCN(C)CC3)cc2)cc1Nc1nccc(-c2cccnc2)n1` [Imatinib]: in the data set with Leukemia K562 cell, the Efficacy was −105.5. In addition, the “% Killing” value in data set [3] is reported as 111.0%. Moreover, the cholesterol accumulation entry in [4] is listed as “decreased the cholesterol accumulation”.
For the compound `CS(=O)(=O)Nc1cccc(-c2ccc3c(c2)C(=O)Nc2cc(OC(F)(F)F)ccc2N3)c1` [NCGC00355551, N-(3-(11-Oxo-8-(trifluoromethoxy)-10,11-dihydro-5H-dibenzo[b,e][1,4]diazepin-2-yl)phenyl)methanesulfonamide], in the data set with Leukemia K562 cell, the Efficacy was −85.3. In addition, the “cognitive decline in APP/PSEN1 mice” value in the data set on APP/PSEN1 mice was “protects APP/PSEN1 mice against cognitive decline”.
Take `O=C1Nc2cc(OC(F)(F)F)ccc2Nc2ccc(-c3cn[nH]c3)cc21` [NCGC00355553, 2-(1H-Pyrazol-4-yl)-8-(trifluoromethoxy)-5,10-dihydro-1-dibenzo[b,e][1,4]diazepin-11-one]: the “apoptotic nuclei induced by Aβ fibrils” value in the data set with neurons is on record as “prevent increases in apoptotic nuclei induced by Aβ fibrils”.
Take `O=C1Nc2cc(OC(F)(F)F)ccc2Oc2ccc(-c3ccnc(N4CCOCC4)c3)cc21` [NCGC00411866, 2-(2-Morpholinopyridin-4-yl)-8-(trifluoromethoxy)dibenzo[b,f][1,4]oxazepin-11(10H)-one]: in [3], the “% Killing” value was 92.9% and inhibition was half-maximal at 9690 nM (IC50).
In the data set on Leukemia K562 cell, `O=C1Nc2cc(C(F)(F)F)ccc2Oc2ccc(-c3ccnc(N4CCOCC4)c3)cc21` [NCGC00481506, 2-(2-Morpholinopyridin-4-yl)-8-(trifluoromethyl)dibenzo[b,f][1,4]oxazepin-11(10H)-one] displayed an Efficacy of −87.5.
Same read-out and setting: for `O=C1Nc2cc(OCCC(F)(F)F)ccc2Oc2ccc(-c3ccnc(N4CCOCC4)c3)cc21` [NCGC00481507, 2-(2-Morpholinopyridin-4-yl)-8-(3,3,3-trifluoropropoxy)dibenzo[b,f][1,4]oxazepin-11(10H)-one] the value was −85.5; for `O=C1Nc2cc(OC(F)(F)F)ccc2[S+]([O-])c2ccc(-c3ccnc(N4CCOCC4)c3)cc21` (stereo not drawn) [NCGC00482446, 2-(2-Morpholinopyridin-4-yl)-8-(trifluoromethoxy)dibenzo[b,f][1,4]thiazepin-11(10H)-one 5-oxide], −83.3; for `O=C1Nc2cc(OC(F)(F)F)ccc2Sc2ccc(-c3ccnc(N4CCOCC4)c3)cc21` [NCGC00482456, 2-(2-Morpholinopyridin-4-yl)-8-(trifluoromethoxy)dibenzo[b,f][1,4]thiazepin-11(10H)-one], −85.7.
Consider `O=C1Nc2cc(OC(F)(F)F)ccc2S(=O)(=O)c2ccc(-c3ccnc(N4CCOCC4)c3)cc21` [NCGC00483140, 2-(2-Morpholinopyridin-4-yl)-8-(trifluoromethoxy)dibenzo[b,f][1,4]thiazepin-11(10H)-one 5,5-dioxide], for which the Efficacy in the data set on Leukemia K562 cell is listed as −87.2.
`Cc1cn(-c2cc(NC(=O)c3ccc(C)c(Nc4nccc(-c5cccnc5)n4)c3)cc(C(F)(F)F)c2)cn1` [Nilotinib]: the Efficacy in the data set on Leukemia K562 cell was −86.5. In data set [3], the “% Killing” value worked out at 98.7% and the half-maximal inhibitory concentration (IC50) was 648 nM. In [5], the ALT was 36.0 IU/L and 26.0 IU/L; the AST is 142.0 IU/L and 114.0 IU/L; the Alkaline phosphatase is 386.4 IU/ and 278.2 IU/; the “Bacilliformes” value is 0 µL⁻¹. For the same compound, in data set [5], the “Bacilliformres (%)” value came to 0%; the Blastos turned out to be 0 µL⁻¹; the Blood urea nitrogen is 19.7 mg/dL and 18.2 mg/dL; the C.H.C.M. was 29.3 g/dL and 28.9 g/dL. In data set [5], the Calcium was 10.4 mg/dL and 10.2 mg/dL; the Creatinine is 1.0 mg/dL and 0.8 mg/dL; the “Eosinophils” value was 32 µL⁻¹ and 0 µL⁻¹; the “Eosinophils (%)” value is 1% and 0%. In addition, in data set [5], the Erythrocytes is 5.9e+06 µL⁻¹ and 8.6e+06 µL⁻¹; the “Glucose (without fluoride)” value is 84.0 mg/dL and 56.0 mg/dL; the H.C.M. is 14.9 pg/cel and 14.7 pg/cel; the Hematocrit was 30.0% and 43.6%. Also, in [5], the Hemoglobin was 8.8 g/dL and 12.6 g/dL; the Juvenile turned out to be 0 µL⁻¹; the Leukocytes was 3,200 /μL and 3,300 /μL; the “Lymphocytes (%)” value was 60% and 62%. In data set [5], the Mean platelet vol. is 6.9 fL and 6.1 fL; the “Monocytes (%)” value was 4% and 15%; the Morphology leukocytes result is on record as “Normal”; the Myelocytes amounted to 0 µL⁻¹. For the same compound, in [5], the “Reticulocytes (%)” value is 0.5% and 0.6%; the “Reticulocytes (×10^3/μL)” value is 29.6 ×10^3/μL and 51.3 ×10^3/μL; the “Segmented” value came to 759 µL; the “Segmented (%)” value was 35% and 23%. Also, in data set [5], the “Segmented (μL)” value was 1,120 μL; the Thrombocyte morphology result is “Normal”; the Thrombocytes is 780,000 /μL and 689,000 /μL; the Total cholesterol is 114.0 mg/dL and 84.0 mg/dL. For the same compound, in data set [5], the V.C.M. is 50.8 fL and 51.0 fL; the V.H.S. was 3.0 and 6.0; the Weight is 42.7 g and 25.2 g; the “Youth (%)” value is listed as 0%. In data set [5] (absolute count), the Lymphocytes was 1,920 and 2,046; the Monocytes was 128 and 495. Also, in [6] (setting [7]), the “Body weight week 4” value was 17 gr (2×) and 19 gr and 15 gr (2×) and 14 gr (2×) and 18 gr (2×); the “Body weight week 5” value is 18 gr (3×) and 21 gr and 17 gr and 19 gr and 16 gr and 20 gr (2×). The “Body weight week 3” value in data set [6] (individual mice, week before diet (67 ppm NCGC00373060 or 200 ppm Nilotinib)) is 15 gr (2×) and 18 gr and 11 gr and 9 gr (2×) and 12 gr and 14 gr and 16 gr. In data set [6] (setting [8]), the “Body weight week 4, mean” value is on record as 16 gr and the “Body weight week 5, mean” value came to 19 gr. The “Body weight week 3, mean” value in data set [6] (mean, week before diet (67 ppm NCGC00373060 or 200 ppm Nilotinib)) is on record as 13 gr. This compound also registered a Survival % in the data set on TLE mice model (individual mice, 60 minutes post-SE induction) of 100%. Further, the “Latency SE” value with TLE mice model (setting [7]) is 30 min and 22 min. The “Survival %, mean” value with TLE mice model (mean, 60 minutes post-SE induction) turned out to be 100%. In addition, in the data set with TLE mice model (setting [8]), the “Latency SE, mean” value worked out at 26 min and the “SE %, mean” value is listed as 40%.
